{
  "source": "patent US20240158750A1",
  "about": "“STROMA-FREE NK CELL DIFFERENTIATION FROM HUMAN PLURIPOTENT STEM CELLS” (The Children's Medical Center Corporation, priority 2021, published 2024)",
  "origin": "cited, not measured here",
  "key": {"G9a/GLP": {"target": "T1, G9a/GLP (Homo sapiens, UniProt Q96KQ7)", "T1 sequence (Q96KQ7 1-1210)": "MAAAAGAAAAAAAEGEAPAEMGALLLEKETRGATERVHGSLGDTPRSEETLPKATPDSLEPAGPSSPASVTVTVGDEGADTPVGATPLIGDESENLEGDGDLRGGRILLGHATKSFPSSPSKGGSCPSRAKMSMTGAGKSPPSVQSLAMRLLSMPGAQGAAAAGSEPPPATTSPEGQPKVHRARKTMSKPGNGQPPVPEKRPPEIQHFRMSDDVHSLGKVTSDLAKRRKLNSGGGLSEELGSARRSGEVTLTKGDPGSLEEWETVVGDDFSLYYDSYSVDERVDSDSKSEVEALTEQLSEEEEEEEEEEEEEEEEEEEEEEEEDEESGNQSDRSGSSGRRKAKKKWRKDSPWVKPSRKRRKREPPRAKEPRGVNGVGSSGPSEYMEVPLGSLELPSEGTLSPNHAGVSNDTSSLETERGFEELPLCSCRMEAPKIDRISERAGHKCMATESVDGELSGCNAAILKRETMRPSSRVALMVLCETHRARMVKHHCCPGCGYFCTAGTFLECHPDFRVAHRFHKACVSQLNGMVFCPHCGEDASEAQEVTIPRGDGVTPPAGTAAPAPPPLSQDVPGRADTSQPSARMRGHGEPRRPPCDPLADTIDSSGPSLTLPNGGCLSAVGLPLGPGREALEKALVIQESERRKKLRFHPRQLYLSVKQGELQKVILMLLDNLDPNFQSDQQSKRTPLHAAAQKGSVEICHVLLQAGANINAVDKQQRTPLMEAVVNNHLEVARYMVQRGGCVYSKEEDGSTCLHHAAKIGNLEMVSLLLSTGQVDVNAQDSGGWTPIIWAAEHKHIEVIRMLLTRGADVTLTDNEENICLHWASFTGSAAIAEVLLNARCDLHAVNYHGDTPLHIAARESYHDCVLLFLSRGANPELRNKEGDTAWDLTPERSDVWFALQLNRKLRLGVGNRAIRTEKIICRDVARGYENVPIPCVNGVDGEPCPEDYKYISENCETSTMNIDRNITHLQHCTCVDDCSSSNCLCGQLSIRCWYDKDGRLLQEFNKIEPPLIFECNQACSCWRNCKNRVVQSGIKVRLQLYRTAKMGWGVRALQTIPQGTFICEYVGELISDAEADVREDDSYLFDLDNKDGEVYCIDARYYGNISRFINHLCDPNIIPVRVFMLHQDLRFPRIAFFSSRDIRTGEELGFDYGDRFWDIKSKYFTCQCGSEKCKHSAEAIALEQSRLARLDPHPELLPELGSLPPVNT", "conditions": "SAM-competitive; cited from earlier work"}, "PKMT G9a": {"target": "T2, PKMT G9a (Homo sapiens, UniProt Q96KQ7)", "T2 sequence (Q96KQ7 1-1210)": "T1 sequence (Q96KQ7 1-1210)", "conditions": "based on Morrison Ki; cited from earlier work"}, "SET7/9": {"target": "T3, SET7/9 (Homo sapiens, UniProt Q8WTS6)", "T3 sequence (Q8WTS6 1-366)": "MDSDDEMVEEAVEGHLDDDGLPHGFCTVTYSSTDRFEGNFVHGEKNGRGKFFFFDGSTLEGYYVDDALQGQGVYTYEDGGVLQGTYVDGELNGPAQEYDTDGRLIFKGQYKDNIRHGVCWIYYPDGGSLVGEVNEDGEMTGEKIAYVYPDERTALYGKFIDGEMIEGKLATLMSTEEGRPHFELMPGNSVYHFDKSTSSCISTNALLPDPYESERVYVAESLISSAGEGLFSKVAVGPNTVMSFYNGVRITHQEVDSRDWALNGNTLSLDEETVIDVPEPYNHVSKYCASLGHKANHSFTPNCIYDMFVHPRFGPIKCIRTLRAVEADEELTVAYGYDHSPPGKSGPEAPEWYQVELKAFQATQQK", "conditions": "SET7/9, inactive, ECSD enzymatic assay; cited from earlier work"}, "SET8/PreSET7": {"target": "SET8/PreSET7 (Homo sapiens, UniProt Q9NQR1)", "conditions": "SET8/PreSET7, inactive, ECSD enzymatic assay; cited from earlier work"}, "PRMT3": {"target": "PRMT3 (Homo sapiens, UniProt O60678)", "sequence (O60678 whole entry, species assumed)": "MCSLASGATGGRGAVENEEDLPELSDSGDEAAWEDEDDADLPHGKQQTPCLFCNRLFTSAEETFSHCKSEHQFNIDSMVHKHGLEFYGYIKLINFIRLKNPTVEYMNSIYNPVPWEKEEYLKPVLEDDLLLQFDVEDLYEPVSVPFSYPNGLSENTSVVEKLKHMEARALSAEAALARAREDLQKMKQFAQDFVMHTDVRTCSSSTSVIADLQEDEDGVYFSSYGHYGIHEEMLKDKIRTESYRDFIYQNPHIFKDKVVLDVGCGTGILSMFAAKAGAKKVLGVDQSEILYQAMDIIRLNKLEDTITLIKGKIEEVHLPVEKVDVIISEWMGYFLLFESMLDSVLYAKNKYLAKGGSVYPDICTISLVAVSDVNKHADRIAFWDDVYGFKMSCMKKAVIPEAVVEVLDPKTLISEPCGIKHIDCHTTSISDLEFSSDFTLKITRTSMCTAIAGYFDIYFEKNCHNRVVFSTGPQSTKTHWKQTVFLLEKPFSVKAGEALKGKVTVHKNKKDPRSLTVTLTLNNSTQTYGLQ", "conditions": "PRMT3, inactive, ECSD enzymatic assay; cited from earlier work"}, "JMJD2E": {"target": "T4, JMJD2E (Homo sapiens, UniProt B2RXH2)", "T4 sequence (B2RXH2 1-506)": "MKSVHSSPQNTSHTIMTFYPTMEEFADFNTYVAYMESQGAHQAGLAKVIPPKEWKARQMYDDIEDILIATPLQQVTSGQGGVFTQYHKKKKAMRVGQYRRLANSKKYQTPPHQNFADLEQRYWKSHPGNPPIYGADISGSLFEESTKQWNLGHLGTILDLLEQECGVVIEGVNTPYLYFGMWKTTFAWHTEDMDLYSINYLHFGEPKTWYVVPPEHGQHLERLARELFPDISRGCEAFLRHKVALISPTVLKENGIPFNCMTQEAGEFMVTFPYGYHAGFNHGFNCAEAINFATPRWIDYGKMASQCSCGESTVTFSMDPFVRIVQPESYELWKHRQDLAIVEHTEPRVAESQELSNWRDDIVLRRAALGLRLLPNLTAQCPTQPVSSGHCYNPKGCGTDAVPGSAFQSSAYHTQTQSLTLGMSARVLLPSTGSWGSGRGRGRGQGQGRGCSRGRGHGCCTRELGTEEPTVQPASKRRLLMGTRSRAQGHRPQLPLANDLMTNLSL", "conditions": "ECSD enzymatic assay, cited from earlier work"}, "G9a": {"test_system": "G9a", "conditions": "cited from earlier work"}, "DIM5": {"target": "T5, DIM5 (Neurospora crassa, UniProt Q8X225)", "T5 sequence (Q8X225 1-331)": "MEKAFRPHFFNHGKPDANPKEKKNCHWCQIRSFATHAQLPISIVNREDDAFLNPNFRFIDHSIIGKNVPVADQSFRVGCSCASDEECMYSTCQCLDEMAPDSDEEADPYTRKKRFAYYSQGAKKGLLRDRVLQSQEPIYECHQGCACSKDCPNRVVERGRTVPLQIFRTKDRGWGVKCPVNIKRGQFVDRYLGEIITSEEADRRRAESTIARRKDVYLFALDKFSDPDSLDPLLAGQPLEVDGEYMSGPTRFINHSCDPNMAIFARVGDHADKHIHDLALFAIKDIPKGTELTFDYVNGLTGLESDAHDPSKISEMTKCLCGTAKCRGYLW", "conditions": "cited from earlier work"}, "Lys20-specific PRSET7": {"target": "T6, Lys20-specific PRSET7 (Homo sapiens, UniProt Q9NQR1)", "T6 sequence (Q9NQR1 1-393)": "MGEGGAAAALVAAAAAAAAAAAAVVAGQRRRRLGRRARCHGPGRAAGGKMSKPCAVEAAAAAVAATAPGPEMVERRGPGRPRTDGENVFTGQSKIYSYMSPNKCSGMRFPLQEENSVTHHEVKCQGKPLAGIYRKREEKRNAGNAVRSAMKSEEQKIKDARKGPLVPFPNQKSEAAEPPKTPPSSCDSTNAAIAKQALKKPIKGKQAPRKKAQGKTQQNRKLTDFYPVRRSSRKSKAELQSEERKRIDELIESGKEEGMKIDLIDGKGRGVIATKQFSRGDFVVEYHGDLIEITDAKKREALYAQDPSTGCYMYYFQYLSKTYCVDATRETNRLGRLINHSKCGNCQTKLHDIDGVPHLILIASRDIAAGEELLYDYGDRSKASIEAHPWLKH", "conditions": "cited from earlier work"}, "Lys27-specific EZH2": {"test_system": "Lys27-specific EZH2", "conditions": "cited from earlier work"}, "Lys4-specific SET7/9": {"target": "T7, Lys4-specific SET7/9 (Homo sapiens, UniProt Q8WTS6)", "T7 sequence (Q8WTS6 1-366)": "T3 sequence (Q8WTS6 1-366)", "conditions": "cited from earlier work"}, "[1]": {"target": "T8, class III isoenzyme SIRT1 (Homo sapiens, UniProt Q96EB6)", "T8 sequence (Q96EB6 1-747)": "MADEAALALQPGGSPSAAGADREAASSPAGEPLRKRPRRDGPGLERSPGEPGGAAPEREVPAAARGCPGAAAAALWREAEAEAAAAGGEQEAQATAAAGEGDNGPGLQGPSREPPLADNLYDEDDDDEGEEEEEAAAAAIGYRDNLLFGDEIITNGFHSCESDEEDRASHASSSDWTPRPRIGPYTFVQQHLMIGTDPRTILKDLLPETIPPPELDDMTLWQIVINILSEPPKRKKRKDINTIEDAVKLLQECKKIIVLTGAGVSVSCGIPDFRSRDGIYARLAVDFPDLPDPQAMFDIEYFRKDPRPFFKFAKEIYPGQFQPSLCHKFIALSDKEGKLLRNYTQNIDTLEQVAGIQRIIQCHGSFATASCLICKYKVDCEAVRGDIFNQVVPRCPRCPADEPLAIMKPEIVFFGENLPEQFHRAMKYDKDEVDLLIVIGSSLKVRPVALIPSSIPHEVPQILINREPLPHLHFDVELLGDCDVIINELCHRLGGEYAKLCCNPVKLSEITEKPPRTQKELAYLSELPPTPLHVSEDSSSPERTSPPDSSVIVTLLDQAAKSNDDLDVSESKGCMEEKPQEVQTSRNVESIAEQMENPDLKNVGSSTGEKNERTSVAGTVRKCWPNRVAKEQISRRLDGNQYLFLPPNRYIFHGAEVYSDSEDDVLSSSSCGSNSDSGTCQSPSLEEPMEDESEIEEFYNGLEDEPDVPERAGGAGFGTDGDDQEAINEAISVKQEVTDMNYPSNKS", "conditions": "cited from earlier work"}},
  "note": "pIC50: −log10 of the molar value.",
  "data": [
    {"molecule": "COc1ccc(C(=O)Oc2ccc(CCn3c(NC(=O)c4ccc(C(F)(F)F)cc4)nc4cc(C(=O)O)ccc43)cc2)cc1", "note": "[BIX-01338]", "values": [
      {"measurement": "effective conc.", "setting": "G9a/GLP", "result": "G9a/GLP effective conc. = 15 μM"}
    ]},
    {"molecule": "COc1cc2c(NC3CCN(C)CC3)nc(N3CCCN(C)CC3)nc2cc1OCCOCCN(C)C", "note": "[UNC0321]", "values": [
      {"measurement": "fold more potent than BIX01294", "setting": "PKMT G9a", "result": "~250", "unit": "fold"},
      {"measurement": "pIC50", "setting": "SET7/9", "result": "< 4.40"},
      {"measurement": "pIC50", "setting": "SET8/PreSET7", "result": "< 4.40"},
      {"measurement": "pIC50", "setting": "PRMT3", "result": "< 4.40"},
      {"measurement": "selectivity", "setting": "JMJD2E; G9a over JMJD2E", "result": "well as JMJD2E (>1000-fold"},
      {"measurement": "pIC50", "setting": "JMJD2E; JMJD2E, inactive", "result": "< 4.40"}
    ]},
    {"molecule": "Chaetocin", "values": [
      {"measurement": "pIC50", "setting": "G9a", "result": 5.60},
      {"measurement": "pIC50", "setting": "DIM5", "result": 5.52},
      {"measurement": "pIC50", "setting": "Lys20-specific PRSET7", "result": "< 4.05"},
      {"measurement": "pIC50", "setting": "Lys27-specific EZH2", "result": "< 4.05"},
      {"measurement": "pIC50", "setting": "Lys4-specific SET7/9", "result": "< 4.05"}
    ]},
    {"molecule": "CCCCc1nc2cc(/C=C/C(=O)NO)ccc2n1CCN(CC)CC", "note": "[SB939 (Pracinostat)]", "values": [
      {"measurement": "activity against the class III isoenzyme SIRT1", "setting": "[1]", "result": "no activity"}
    ]}
  ]
}
